Measured values: US20240390340A1 (INCYTE CORPORATION, priority 2023, published 2024)
pIC50: −log10 of the molar value.

Experiments:
KRAS G12D = KRAS G12D (Homo sapiens, UniProt P01116, G12D); test: GDP-GTP exchange assay (bodipy-GDP/GppNHp, SOS1), KRAS G12D; format: biochemical; conditions: bodipy-loaded KRAS G12D 2.5 nM, 4 h pre-incubation; value for the most potent isomer quoted for certain compounds; read-out: G12D (KRAS G12D exchange assay IC50)
KRAS G12V = KRAS G12V (Homo sapiens, UniProt P01116, G12V); test: GDP-GTP exchange assay (bodipy-GDP/GppNHp, SOS1), KRAS G12V; format: biochemical; conditions: KRAS G12V mutant; value for the most potent isomer quoted for certain compounds; read-out: G12V (KRAS G12V exchange assay IC50)
KRAS G12V, sequence (P01116 1-188 isoform P01116-2 G12V): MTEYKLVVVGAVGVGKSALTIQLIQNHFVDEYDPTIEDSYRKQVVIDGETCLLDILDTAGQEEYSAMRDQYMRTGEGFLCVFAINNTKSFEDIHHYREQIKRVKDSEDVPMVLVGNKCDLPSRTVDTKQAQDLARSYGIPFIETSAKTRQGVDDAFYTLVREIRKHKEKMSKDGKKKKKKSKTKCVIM

KRAS G12D, sequence (P01116 1-188 isoform P01116-2 G12D): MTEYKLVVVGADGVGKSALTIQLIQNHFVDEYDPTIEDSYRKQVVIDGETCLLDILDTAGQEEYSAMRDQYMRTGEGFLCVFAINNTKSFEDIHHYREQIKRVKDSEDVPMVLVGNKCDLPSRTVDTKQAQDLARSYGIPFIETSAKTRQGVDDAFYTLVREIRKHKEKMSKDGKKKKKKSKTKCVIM

pIC50 (KRAS G12D) | pIC50 (KRAS G12V) | Structure (SMILES)
≥ 7.00 | ≥ 7.00 | Cc1cc(C)cc(CO[C@H]2C[C@H](c3cc4c(C)nc5c(F)c(-c6cccc(Cl)c6Cl)c(CCC#N)cc5c4n3[C@H]3[C@H]4CN[C@@H]3C4)N(C(=O)C3CC3)C2)c1 [Example 123]
≥ 7.00 | ≥ 7.00 | Cc1nc2c(F)c(-c3cccc(Cl)c3Cl)c(CCC#N)cc2c2c1cc([C@H]1C[C@H](OC[C@@H]3CCCO3)CN1C(=O)C1CC1)n2[C@H]1[C@H]2CN[C@@H]1C2 [Example 400]
≥ 7.00 | ≥ 7.00 | Cc1nc2c(F)c(-c3cccc(Cl)c3Cl)c(CCC#N)cc2c2c1cc([C@H]1C[C@H](OCc3cnn(C(F)(F)F)c3)CN1C(=O)C1CC1)n2[C@H]1[C@H]2CN[C@@H]1C2 [Example 311]
≥ 7.00 | ≥ 7.00 | Cc1nc2c(F)c(-c3cccc(Cl)c3Cl)c(CCC#N)cc2c2c1cc([C@H]1C[C@H](n3cc(CN4CCOCC4=O)nn3)CN1C(=O)C1CC1)n2[C@H]1[C@H]2CN[C@@H]1C2 [Example 323]
≥ 7.00 | ≥ 7.00 | Cc1nc2c(F)c(-c3cccc(Cl)c3Cl)c(CCC#N)cc2c2c1cc([C@H]1C[C@H](OC3CCOC3)CN1C(=O)C1CC1)n2[C@H]1[C@H]2CN[C@@H]1C2 (stereo partly shown) [Example 364]
≥ 7.00 | ≥ 7.00 | [2H]C([2H])(O[C@H]1C[C@H](c2cc3c(C)nc4c(F)c(-c5cccc(Cl)c5Cl)c(CCC#N)cc4c3n2[C@H]2[C@H]3CN[C@@H]2C3)N(C(=O)C2CC2)C1)c1nscc1C [Example 233]
≥ 7.00 | ≥ 7.00 | Cc1c(O[C@H]2C[C@H](c3cc4c(C)nc5c(F)c(-c6cccc(Cl)c6Cl)c(CCC#N)cc5c4n3[C@H]3[C@H]4CN[C@@H]3C4)N(C(=O)C3CC3)C2)ccnc1Cl [Example 295]
≥ 7.00 | ≥ 7.00 | Cc1nc2c(F)c(-c3cccc(Cl)c3Cl)c(CCC#N)cc2c2c1cc([C@H]1C[C@H](Oc3ccnn3C)CN1C(=O)C1CC1)n2[C@H]1[C@H]2CN[C@@H]1C2 [Example 175]
≥ 7.00 | ≥ 7.00 | Cc1nc2c(F)c(-c3cccc(Cl)c3Cl)c(CCC#N)cc2c2c1cc([C@H]1C[C@H](OCc3ccnn3C(F)F)CN1C(=O)C1CC1)n2[C@H]1[C@H]2CN[C@@H]1C2 [Example 313]
≥ 7.00 | ≥ 7.00 | CC(O)c1nc2c(F)c(-c3cccc(Cl)c3Cl)c(CCC#N)cc2c2c1cc([C@H]1C[C@H](OCc3c(F)cccc3F)CN1C(=O)C1(C)CC1)n2[C@H]1[C@H]2CN[C@@H]1C2 (stereo partly shown) [Example 185]
≥ 7.00 | ≥ 7.00 | Cc1nc2c(F)c(-c3cccc(Cl)c3Cl)c(CCC#N)cc2c2c1cc([C@H]1C[C@H](OCC3(C#N)CCC3)CN1C(=O)C1CC1)n2[C@H]1[C@H]2CN[C@@H]1C2 [Example 339]
≥ 7.00 | ≥ 7.00 | Cc1nc2c(F)c(-c3cccc(Cl)c3Cl)c(CCC#N)cc2c2c1cc([C@H]1C[C@H](n3cc(C(C)(C)C(F)F)nn3)CN1C(=O)C1CC1)n2[C@H]1C2CNC1C2 (stereo partly shown) [Example 225]
≥ 7.00 | ≥ 7.00 | Cc1nc2c(F)c(-c3cccc(Cl)c3Cl)c(CCC#N)cc2c2c1cc([C@H]1C[C@H](OC[C@@H]3CCCN3)CN1C(=O)C1CC1)n2[C@H]1[C@H]2CN[C@@H]1C2 [Example 449]
≥ 7.00 | ≥ 7.00 | Cc1nc2c(F)c(-c3cccc(Cl)c3Cl)c(CCC#N)cc2c2c1cc([C@H]1C[C@H](Oc3cc(Cl)cc(C#N)c3)CN1C(=O)C1CC1)n2[C@H]1[C@H]2CN[C@@H]1C2 [Example 191]
6.00 to 7.00 | ≥ 7.00 | Cc1nc2c(F)c(-c3cccc(Cl)c3Cl)c(CCC#N)cc2c2c1cc([C@H]1C[C@H](Oc3cccc(C(C)C)c3)CN1C(=O)C1CC1)n2[C@H]1[C@H]2CN[C@@H]1C2 [Example 168]
≥ 7.00 | ≥ 7.00 | CNC(=O)c1cccc(O[C@H]2C[C@H](c3cc4c(C)nc5c(F)c(-c6cccc(Cl)c6Cl)c(CCC#N)cc5c4n3[C@H]3[C@H]4CN[C@@H]3C4)N(C(=O)C3CC3)C2)c1 [Example 173]
≥ 7.00 | ≥ 7.00 | Cc1nc2c(F)c(-c3cccc(Cl)c3Cl)c(CCC#N)cc2c2c1cc([C@H]1C[C@H](Oc3cccnc3C#N)CN1C(=O)C1CC1)n2[C@H]1[C@H]2CN[C@@H]1C2 [Example 294]

Second part, the compound before the results:

Structure (SMILES) | pIC50 (KRAS G12D) | pIC50 (KRAS G12V)
Cc1nc2c(F)c(-c3cccc(Cl)c3Cl)c(CCC#N)cc2c2c1cc([C@H]1C[C@H](n3nnc(-c4ccccc4)n3)CN1C(=O)C1CC1)n2[C@H]1[C@H]2CN[C@@H]1C2 [Example 399] | ≥ 7.00 | ≥ 7.00
COc1cccc(CO[C@H]2C[C@H](c3cc4c(C)nc5c(F)c(-c6cccc(Cl)c6Cl)c(CCC#N)cc5c4n3[C@H]3[C@H]4CN[C@@H]3C4)N(C(=O)C3CC3)C2)c1F [Example 154] | ≥ 7.00 | ≥ 7.00
Cc1cnn([C@H]2C[C@H](c3cc4c(C)nc5c(F)c(-c6cccc(Cl)c6Cl)c(CCC#N)cc5c4n3[C@H]3[C@H]4CN[C@@H]3C4)N(C(=O)C3CC3)C2)n1 [Example 344] | ≥ 7.00 | ≥ 7.00
Cc1nc2c(F)c(-c3cccc(Cl)c3Cl)c(CCC#N)cc2c2c1cc([C@H]1C[C@H](Oc3ccn(C(F)(F)F)n3)CN1C(=O)C1CC1)n2[C@H]1[C@H]2CN[C@@H]1C2 [Example 357] | ≥ 7.00 | ≥ 7.00
CO[C@@H]1CC[C@@H](O[C@H]2C[C@H](c3cc4c(C)nc5c(F)c(-c6cccc(Cl)c6Cl)c(CCC#N)cc5c4n3[C@H]3[C@H]4CN[C@@H]3C4)N(C(=O)C3CC3)C2)C1 [Example 440] | ≥ 7.00 | ≥ 7.00
Cc1nc2c(F)c(-c3cccc(Cl)c3Cl)c(CCC#N)cc2c2c1cc([C@H]1C[C@H](OCc3nsc4cc(F)ccc34)CN1C(=O)C1CC1)n2[C@H]1[C@H]2CN[C@@H]1C2 [Example 256] | ≥ 7.00 | ≥ 7.00
Cc1cccc(C)c1CO[C@H]1C[C@H](c2cc3c(C)nc4c(F)c(-c5cccc(Cl)c5Cl)c(CCC#N)cc4c3n2[C@H]2[C@H]3CN[C@@H]2C3)N(C(=O)C2CC2)C1 [Example 113] | ≥ 7.00 | ≥ 7.00
Cc1nc2c(F)c(-c3cccc(Cl)c3Cl)c(CCC#N)cc2c2c1cc([C@H]1C[C@H](n3nnc(CO)c3C)CN1C(=O)C1CC1)n2[C@H]1[C@H]2CN[C@@H]1C2 [Example 326] | ≥ 7.00 | ≥ 7.00
Cc1nc2c(F)c(-c3cccc(Cl)c3Cl)c(CCC#N)cc2c2c1cc([C@H]1C[C@H](n3ccc(C(F)F)n3)CN1C(=O)C1CC1)n2[C@H]1[C@H]2CN[C@@H]1C2 [Example 318] | ≥ 7.00 | ≥ 7.00
Cc1nc2c(F)c(-c3cccc(Cl)c3Cl)c(CCC#N)cc2c2c1cc([C@H]1C[C@H](Oc3ccn(C)c3C(F)(F)F)CN1C(=O)C1CC1)n2[C@H]1[C@H]2CN[C@@H]1C2 [Example 407] | ≥ 7.00 | ≥ 7.00
Cc1cccc(CO[C@H]2C[C@H](c3cc4c(C)nc5c(F)c(-c6cccc(Cl)c6Cl)c(CCC#N)cc5c4n3[C@H]3[C@H]4CN[C@@H]3C4)N(C(=O)C3CC3)C2)c1 [Example 91] | ≥ 7.00 | ≥ 7.00
Cc1nc2c(F)c(-c3cccc(Cl)c3Cl)c(CCC#N)cc2c2c1cc([C@H]1C[C@H](Oc3cccnn3)CN1C(=O)C1CC1)n2[C@H]1[C@H]2CN[C@@H]1C2 [Example 138] | ≥ 7.00 | ≥ 7.00
Cc1nc2c(F)c(-c3cccc(Cl)c3Cl)c(CCC#N)cc2c2c1cc([C@H]1C[C@H](n3cnc(-c4ccccc4)n3)CN1C(=O)C1CC1)n2[C@H]1[C@H]2CN[C@@H]1C2 [Example 349] | ≥ 7.00 | ≥ 7.00
Cc1nc2c(F)c(-c3cccc(Cl)c3Cl)c(CCC#N)cc2c2c1cc([C@H]1C[C@H](OCc3cncs3)CN1C(=O)C1CC1)n2[C@H]1[C@H]2CN[C@@H]1C2 [Example 97] | ≥ 7.00 | ≥ 7.00
Cc1ccnc(O[C@H]2C[C@H](c3cc4c([C@@H](C)O)nc5c(F)c(-c6cccc(Cl)c6Cl)c(CCC#N)cc5c4n3[C@H]3C4CNC3C4)N(C(=O)C3CC3)C2)c1 (stereo partly shown) [Example 424] | ≥ 7.00 | ≥ 7.00
Cc1nc2c(F)c(-c3cccc(Cl)c3Cl)c(CCC#N)cc2c2c1cc([C@H]1C[C@H](OCc3ccns3)CN1C(=O)C1CC1)n2[C@H]1[C@H]2CN[C@@H]1C2 [Example 257] | ≥ 7.00 | ≥ 7.00
Cc1nc2c(F)c(-c3cccc(Cl)c3Cl)c(CCC#N)cc2c2c1cc([C@H]1C[C@H](Oc3c(F)cc(C#N)cc3F)CN1C(=O)C1CC1)n2[C@H]1[C@H]2CN[C@@H]1C2 [Example 293] | ≥ 7.00 | ≥ 7.00
COC(=O)c1ccc(-c2nnn([C@H]3C[C@H](c4cc5c(C)nc6c(F)c(-c7cccc(Cl)c7Cl)c(CCC#N)cc6c5n4[C@H]4[C@H]5CN[C@@H]4C5)N(C(=O)C4CC4)C3)n2)cc1 [Example 435] | ≥ 7.00 | ≥ 7.00
Cc1nc2c(F)c(-c3cccc(Cl)c3Cl)c(CCC#N)cc2c2c1cc([C@H]1C[C@H](Oc3cccc(C#N)c3)[C@H](C)N1C(=O)C1CC1)n2[C@H]1[C@H]2CN[C@@H]1C2 [Example 209] | ≥ 7.00 | 6.00 to 7.00
Cc1nc2c(F)c(-c3cccc(Cl)c3Cl)c(CCC#N)cc2c2c1cc([C@H]1C[C@H](OCc3cccnc3Cl)CN1C(=O)C1CC1)n2[C@H]1[C@H]2CN[C@@H]1C2 [Example 253] | ≥ 7.00 | ≥ 7.00
Cc1nnn([C@H]2C[C@H](c3cc4c(C)nc5c(F)c(-c6cccc(Cl)c6Cl)c(CCC#N)cc5c4n3[C@H]3[C@H]4CN[C@@H]3C4)N(C(=O)C3CC3)C2)n1 [Example 398] | ≥ 7.00 | ≥ 7.00
Cc1nc2c(F)c(-c3cccc(Cl)c3Cl)c(CCC#N)cc2c2c1cc([C@H]1C[C@H](OC[C@H]3CCOC3)CN1C(=O)C1CC1)n2[C@H]1[C@H]2CN[C@@H]1C2 [Example 372] | ≥ 7.00 | ≥ 7.00
Cc1nc2c(F)c(-c3cccc(Cl)c3Cl)c(CCC#N)cc2c2c1cc([C@H]1C[C@H](Oc3cn(C)nc3C(F)F)CN1C(=O)C1CC1)n2[C@H]1[C@H]2CN[C@@H]1C2 [Example 299] | ≥ 7.00 | ≥ 7.00
N#CCCc1cc2c(nc(C3=CCOCC3)c3cc([C@H]4C[C@H](OCc5c(F)cccc5F)CN4C(=O)C4CC4)n([C@H]4[C@H]5CN[C@@H]4C5)c32)c(F)c1-c1cccc(Cl)c1Cl [Example 218] | ≥ 7.00 | ≥ 7.00
